Common to all, as to experiment: NCI-60 cell line screen, 48 h
Test [1] concerns SK-OV-3 ovarian.
Test [2] concerns NCI-H522 lung.
Test [3] relates to NCI-H460 lung.
Test [4] concerns OVCAR-8 ovarian.
Test [5] deals with HOP-62 NSCLC.
In test [6] the test system is MDA-MB-435.
For test [7], the system named is HL-60(TB) leukemia.
The test system of test [8] is MCF7 breast.
The test system of test [9] is KM12 colon.
Test [10] deals with T-47D breast.

Data on seven compounds can be found in PubChem BioAssay (NCI).

Several values for one entry are separate records, joined by “and”; a condition that tells them apart may be missing. Equal values may be shown once.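 Five compound concentrations were applied to cells in 96-well plates for 48 hours; endpoints were derived by simple linear interpolation of the resulting dose-response curve. GI50 marks 50% less growth. TGI: concentration producing complete growth inhibition.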 Where only a bound is given, the exact number is not on record here.

On to `CCN(CC)c1ccc(/C=C2/NC(=O)NC2=O)cc1`, for which the GI50 in test [1] was 6.84 µM; in test [2], 2.18 µM; in [3], 4.44 µM; in [4] it was 14.7 µM; in [5] it was 10 µM; in test [6] it was 0.42 µM. Further, the GI50 in [7] was 4900 nM; in test [8], 2.84 µM; in test [9], 1.65 µM; in test [10], 4.09 µM. Besides, the TGI in [1] is above 100 µM; in test [2] it was 24.8 µM; in test [3], above 100 µM; in [4], above 100 µM; in test [5] it was above 100 µM; in test [6] it was 3.53 µM. Further, the TGI in [7] is above 100 µM; in test [8], above 100 µM; in [9], above 24.2 µM; in test [10], above 71.5 µM.
On to `COc1cc(C2CC(c3cc(Cl)c(C)cc3O)=NN2c2ccc(S(N)(=O)=O)cc2)cc(OC)c1OC` (stereo not drawn), for which the GI50 in [1] was 3.71 µM; in test [2] it was 2.45 µM; in [3], 2.06 µM; in test [4] it was 3.92 µM; in test [5] it was 2.1 µM; in test [6], 2.57 µM. The GI50 in test [7] is 2950 nM; in [8], 2.77 µM; in test [9] it was 2.28 µM; in test [10], 2.28 µM. In addition, the TGI was determined as 11.4 µM in test [1]; 6.73 µM in [2]; 3.87 µM in test [3]; 12.9 µM in [4]; 4.56 µM in [5]; 8.47 µM in [6]. Further, the TGI in [7] was 14.8 µM; in [8] it was 10.3 µM; in test [9], 5.1 µM; in test [10], 7.06 µM.
Turning to `CC(=O)O[C@H]1Cc2c([nH]c3ccccc23)[C@@H](c2ccc(Cl)cc2)N1C(=O)CCNC(C)(C)C`, the GI50 in [1] is 4.53 µM; in test [2], 5.82 µM; in [3], 4.26 µM; in test [4], 4.86 µM; in test [5] it was 2.67 µM; in [6] it was 4.68 µM. Further, the GI50 is 2510 nM in [7], 3.25 µM in [8], 4.33 µM in [9] and 3.6 µM in test [10]. Moreover, the TGI in test [1] was determined as 8.97 µM; in test [2] it was 11 µM; in test [3], 10.4 µM; in test [4] it was 9.45 µM; in test [5], 7.07 µM; in test [6] it was 9.06 µM. Moreover, the TGI in test [7] came out at 11.7 µM; in test [8] it was 7.74 µM; in [9], 9.51 µM; in test [10] it was 8.36 µM.
Regarding `CCN(CC)Cc1cc(Nc2c3ccc(Cl)cc3nc3c(C)cccc23)ccc1O`, the GI50 is 1.78 µM in [1]; 0.585 µM in test [2]; 1.16 µM in [3]; 1.34 µM in test [4]; 1.65 µM in [5]; 1.75 µM in [6]. The GI50 is 2420 nM in [7], 1 µM in test [8], 1.59 µM in [9] and 2.09 µM in [10]. For the same compound, the TGI came to 3.33 µM in test [1]; 1.92 µM in test [2]; 2.7 µM in test [3]; 3.45 µM in test [4]; 3.26 µM in [5]; 3.14 µM in test [6]. The TGI stood at 5.24 µM in [7], 2.32 µM in test [8], 3.46 µM in test [9] and 4.08 µM in [10].
Take `N#CSc1cc(-c2nc3ccccc3o2)ccc1N`: the GI50 in test [1] was 76.5 µM; in [2], above 40.9 µM; in test [3], 24 µM; in test [4] it was 2.79 µM; in [5], 52.7 µM; in [6] it was 24 µM. For the same compound, the GI50 in test [7] is 195 nM; in [8], 14.5 µM; in test [9] it was 6.54 µM; in test [10], 7.5 µM. Moreover, the TGI is above 100 µM in [1]; above 64.6 µM in test [2]; above 100 µM in [3]; above 32.5 µM in test [4]; above 100 µM in test [5]; 64.1 µM in [6]. Also, the TGI was 0.552 µM in test [7], above 84.8 µM in test [8], 27.1 µM in test [9] and 90 µM in test [10].
Regarding `Nc1cc2ccncc2c2ccccc12`, the GI50 is 13.6 µM in [1]; 5.49 µM in test [2]; 8.78 µM in test [3]; 5.25 µM in test [4]; 13.7 µM in [5]; 17.2 µM in [6]. The GI50 in test [7] is 20000 nM; in test [8], 19.1 µM; in [9], 11.6 µM; in test [10], 22.3 µM. Also, the TGI in [1] is 87.4 µM; in test [2] it was 26.6 µM; in test [3], 70.6 µM; in test [4], above 100 µM; in [5], above 100 µM; in [6], 60 µM. Also, the TGI is 61.9 µM in test [7], above 100 µM in test [8], above 100 µM in test [9] and above 100 µM in [10].
Turning to `CN(C)CC1CCCCCCCCCCC1=O` (stereo not drawn), the TGI is above 100 µM in [1]; above 100 µM in [2]; above 100 µM in test [3]; above 10 µM in test [4]; above 100 µM in test [5]; above 100 µM in test [6]. The TGI in test [7], in test [8], in [9] and in test [10] was above 100 µM throughout. The GI50 is above 100 µM in [2]; above 100 µM in test [3]; above 100 µM in test [5]; above 100 µM in test [6]; above 100000 nM in test [7]; above 100 µM in [8]. For the same compound, the GI50 in [9] was > 10 µM and 78.3 µM; in test [10], above 100 µM.
